Biological target: T1, human CXCR4 receptor (Homo sapiens, UniProt P61073)
T1 construct: expressed in transfected cells
Assay: Measurement of intracellular Ca+2 responses (FLIPR), antagonism of the SDF-1α response
Format: cell-based
Conditions: for IC50: HEK-Gqi5 cells stably expressing human CXCR4, Fluo-4 FLIPR, antagonism of SDF-1α 1.9 nM (EC65); for CXCR4 (% Inh): percent antagonism of SDF-1α 1.9 nM (EC65) response, HEK-Gqi5 human CXCR4 cells, value in brackets
Summary of the method: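 HEK-Gqi5 cells stably expressing CXCR4, Fluo-4-loaded (2 uM, 40 min, 37 °C), read on FLIPR. Compound (2.44-40,000 nM) added first for agonism, then SDF-1α at 1.9 nM final (EC65); IC50 and percent antagonism from second-addition calcium signal.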

T1 sequence (P61073 whole entry): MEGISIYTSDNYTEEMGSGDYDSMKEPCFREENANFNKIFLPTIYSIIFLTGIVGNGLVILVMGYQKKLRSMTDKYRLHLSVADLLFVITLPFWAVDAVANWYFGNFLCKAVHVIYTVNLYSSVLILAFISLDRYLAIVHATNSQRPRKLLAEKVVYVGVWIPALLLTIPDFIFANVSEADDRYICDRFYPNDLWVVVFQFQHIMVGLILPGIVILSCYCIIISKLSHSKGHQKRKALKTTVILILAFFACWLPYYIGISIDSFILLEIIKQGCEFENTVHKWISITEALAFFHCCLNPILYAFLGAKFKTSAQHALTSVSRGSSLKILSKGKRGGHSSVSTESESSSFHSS

Structure (SMILES) | IC50 (values given in μM) | CXCR4 (% Inh) | IC50 (values in nM)
CCN(CC)CCCNc1nc(NC2CCN(Cc3cccc(C)c3N(C)C)CC2)c2ccccc2n1 [Compound 152, N˜2˜-[3-(Diethylamino)propyl]-N˜4˜-{1-[2-(dimethylamino)-3-methylbenzyl]piperidin-4-yl}quinazoline-2,4-diamine] | 1.4 µM | 100% | 
COc1cccc(N(C)C)c1CN1CCC(Nc2nc(NCCN(C)C)nc3ccccc23)CC1 [Compound 153, N˜2˜-[2-(Dimethylamino)ethyl]-N˜4˜-{1-[2-(dimethylamino)-6-methoxybenzyl]piperidin-4-yl}quinazoline-2,4-diamine] |  | 98% | 0.118 µM
COc1cccc(N(C)C)c1CN1CCC(Nc2nc(NCCN3CCN(C)CC3)nc3ccccc23)CC1 [Compound 154, N˜4˜-{1-[2-(Dimethylamino)-6-methoxybenzyl]piperidin-4-yl}-N˜2˜-[2-(4-methylpiperazin-1-yl)ethyl]quinazoline-2,4-diamine] |  | 97% | 0.56 µM
COc1cc2nc(NCCCN(C)C)nc(NC3CCN(Cc4c(OC)cccc4N(C)CCN(C)C)CC3)c2cc1OC [Compound 157, N˜4˜-[1-(2-{[2-(Dimethylamino)ethyl](methyl)amino}-6-methoxybenzyl)piperidin-4-yl]-N˜2˜-[3-(dimethylamino)propyl]-6,7-dimethoxyquinazoline-2,4-diamine] |  | 94% | 0.411 µM
CCN(CC)CCCNc1nc(NC2CCN(Cc3c(OCCN(C)C)cccc3N(C)C)CC2)c2cc(OC)c(OC)cc2n1 [Compound 166, N˜2˜-[3-(Diethylamino)propyl]-N˜4˜-(1-{2-(dimethylamino)-6-[2-(dimethylamino)ethoxy]benzyl}piperidin-4-yl)-6,7-dimethoxyquinazoline-2,4-diamine] |  | 94% | 0.049 µM
COc1cccc(N(C)C)c1CN1CCCC(Nc2nc(NCCCN(C)C)nc3ccccc23)CC1 (centres unmarked) [Compound 174, N˜4˜-{1-[2-(Dimethylamino)-6-methoxybenzyl]azepan-4-yl}-N˜2˜-[3-(dimethylamino)propyl]quinazoline-2,4-diamine] |  | 97% | 0.77 µM
COc1cc2nc(NCCCN(C)C)nc(NCCNCc3c(OC)cccc3N(C)C)c2cc1OC [Compound 178, N˜4˜-(2-{[2-(Dimethylamino)-6-methoxybenzyl]amino}ethyl)-N˜2˜-[3-(dimethylamino)propyl]-6,7-dimethoxyquinazoline-2,4-diamine] | > 10 µM | 49% | 
COc1cc2nc(NCCN)nc(NC3CCN(Cc4c(OCCN(C)C)cccc4N(C)C)CC3)c2cc1OC [Compound 180, N˜2˜-(2-Aminoethyl)-N˜4˜-(1-{2-(dimethylamino)-6-[2-(dimethylamino)ethoxy]benzyl}piperidin-4-yl)-6,7-dimethoxyquinazoline-2,4-diamine] |  | 94% | 0.116 µM
COc1cc2nc(NCCCN)nc(NC3CCN(Cc4c(OCCN(C)C)cccc4N(C)C)CC3)c2cc1OC [Compound 182, N˜2˜-(3-Aminopropyl)-N˜4˜-(1-{2-(dimethylamino)-6-[2-(dimethylamino)ethoxy]benzyl}piperidin-4-yl)-6,7-dimethoxyquinazoline-2,4-diamine] |  | 94% | 0.047 µM
CCN(CC)CCOc1cccc(N(C)C)c1CN1CCC(Nc2nc(NCCN(C)C)nc3cc(OC)c(OC)cc23)CC1 [Compound 189, N˜4˜-(1-{2-[2-(Diethylamino)ethoxy]-6-(dimethylamino)benzyl}piperidin-4-yl)-N˜2˜-[2-(dimethylamino)ethyl]-6,7-dimethoxyquinazoline-2,4-diamine] |  | 94% | 0.045 µM
COc1cc2nc(NCCN(C)C)nc(NC3CCN(Cc4c(OCCN5CCCC5)cccc4N(C)C)CC3)c2cc1OC [Compound 193, N˜2˜-[2-(Dimethylamino)ethyl]-N˜4˜-{1-[2-(dimethylamino)-6-(2-pyrrolidin-1-ylethoxy)benzyl]piperidin-4-yl}-6,7-dimethoxyquinazoline-2,4-diamine] |  | 95% | 0.065 µM
COc1cc2nc(NC[C@@H](O)CO)nc(NC3CCN(Cc4c(OCCN(C)C)cccc4N(C)C)CC3)c2cc1OC [Compound 194, 3-({4-[(1-{2-(Dimethylamino)-6-[2-(dimethylamino)ethoxy]benzyl}piperidin-4-yl)amino]-6,7-dimethoxyquinazolin-2-yl}amino)propane-1,2-diol] |  | 96% | 0.074 µM
COc1cc2nc(NC[C@H](O)CO)nc(NC3CCN(Cc4c(OCCN(C)C)cccc4N(C)C)CC3)c2cc1OC [Compound 195, 3-({4-[(1-{2-(Dimethylamino)-6-[2-(dimethylamino)ethoxy]benzyl}piperidin-4-yl)amino]-6,7-dimethoxyquinazolin-2-yl}amino)propane-1,2-diol] |  | 98% | 0.031 µM
COc1cc2nc(NCC(O)CN)nc(NC3CCN(Cc4c(OCCN(C)C)cccc4N(C)C)CC3)c2cc1OC (centres unmarked) [Compound 196, 1-Amino-3-({4-[(1-{2-(dimethylamino)-6-[2-(dimethylamino)ethoxy]benzyl}piperidin-4-yl)amino]-6,7-dimethoxyquinazolin-2-yl}amino)propan-2-ol] |  | 95% | 0.038 µM
COc1cc2nc(NCc3cncs3)nc(NC3CCN(Cc4c(OCCN(C)C)cccc4N(C)C)CC3)c2cc1OC [Compound 197, N˜4˜-(1-{2-(Dimethylamino)-6-[2-(dimethylamino)ethoxy]benzyl}piperidin-4-yl)-6,7-dimethoxy-N˜2˜-(1,3-thiazol-5-ylmethyl)quinazoline-2,4-diamine] |  | 85% | 0.034 µM
COc1cc2nc(NCc3cncn3C)nc(NC3CCN(Cc4c(OCCN(C)C)cccc4N(C)C)CC3)c2cc1OC [Compound 198, N˜4˜-(1-{2-(Dimethylamino)-6-[2-(dimethylamino)ethoxy]benzyl}piperidin-4-yl)-6,7-dimethoxy-N˜2˜-[(1-methyl-1H-imidazol-5-yl)methyl]quinazoline-2,4-diamine] |  | 98% | 0.036 µM
COc1cc2nc(NCCN(C)C)nc(NC3CCN(Cc4c(OCCCN(C)C)cccc4N(C)C)CC3)c2cc1OC [Compound 203, N˜4˜-(1-{2-(Dimethylamino)-6-[3-(dimethylamino)propoxy]benzyl}piperidin-4-yl)-N˜2˜-[2-(dimethylamino)ethyl]-6,7-dim ethoxyquinazoline-2,4-diamine] |  | 94% | 0.066 µM
COc1cc2nc(NCc3ncco3)nc(NC3CCN(Cc4c(OCCN(C)C)cccc4N(C)C)CC3)c2cc1OC [Compound 204, N˜4˜-(1-{2-(Dimethylamino)-6-[2-(dimethylamino)ethoxy]benzyl}piperidin-4-yl)-6,7-dimethoxy-N2(1,3-oxazol-2-ylmethyl)quinazoline-2,4-diamine] |  | 92% | 0.047 µM
COc1cc2nc(NCc3nccs3)nc(NC3CCN(Cc4c(OCCN(C)C)cccc4N(C)C)CC3)c2cc1OC [Compound 205, N˜4˜-(1-{2-(Dimethylamino)-6-[2-(dimethylamino)ethoxy]benzyl}piperidin-4-yl)-6,7-dimethoxy-N˜2˜-(1,3-thiazol-2-ylmethyl)quinazoline-2,4-diamine] |  | 100% | 0.032 µM
COc1cc2nc(NCc3c[nH]cn3)nc(NC3CCN(Cc4c(OCCN(C)C)cccc4N(C)C)CC3)c2cc1OC [Compound 206, N˜4˜-(1-{2-(Dimethylamino)-6-[2-(dimethylamino)ethoxy]benzyl}piperidin-4-yl)-N˜2˜-(1H-imidazol-4-ylmethyl)-6,7-dimethoxyquinazoline-2,4-diamine] |  | 96% | 0.016 µM
COc1cc2nc(NCCCO)nc(NC3CCN(Cc4c(OCCN(C)C)cccc4N(C)C)CC3)c2cc1OC [Compound 207, 3-({4-[(1-{2-(Dimethylamino)-6-[2-(dimethylamino)ethoxy]benzyl}piperidin-4-yl)amino]-6,7-dimethoxyquinazolin-2-yl}amino)propan-1-ol] |  | 99% | 0.069 µM
COc1cc2nc(NCCO)nc(NC3CCN(Cc4c(OCCN(C)C)cccc4N(C)C)CC3)c2cc1OC [Compound 208, 2-({4-[(1-{2-(Dimethylamino)-6-[2-(dimethylamino)ethoxy]benzyl}piperidin-4-yl)amino]-6,7-dimethoxyquinazolin-2-yl}amino)ethanol] |  | 98% | 0.169 µM
COc1cc2nc(NCCc3nccs3)nc(NC3CCN(Cc4c(OCCN(C)C)cccc4N(C)C)CC3)c2cc1OC [Compound 209, N˜4˜-(1-{2-(Dimethylamino)-6-[2-(dimethylamino)ethoxy]benzyl}piperidin-4-yl)-6,7-dimethoxy-N˜2˜-[2-(1,3-thiazol-2-yl)ethyl]quinazoline-2,4-diamine] |  | 92% | 0.047 µM
COc1cc2nc(NCCc3ncc[nH]3)nc(NC3CCN(Cc4c(OCCN(C)C)cccc4N(C)C)CC3)c2cc1OC [Compound 210, N˜4˜-(1-{2-(Dimethylamino)-6-[2-(dimethylamino)ethoxy]benzyl}piperidin-4-yl)-N˜2˜-[2-(1H-imidazol-2-yl)ethyl]-6,7-dimethoxyquinazoline-2,4-diamine] |  | 97% | 0.065 µM
COc1cc2nc(NCc3cnco3)nc(NC3CCN(Cc4c(OCCN(C)C)cccc4N(C)C)CC3)c2cc1OC [Compound 212, N˜4˜-(1-{2-(Dimethylamino)-6-[2-(dimethylamino)ethoxy]benzyl}piperidin-4-yl)-6,7-dimethoxy-N˜2˜-(1,3-oxazol-5-ylmethyl)quinazoline-2,4-diamine] |  | 98% | 0.058 µM

Reference: patent US8193203B2, “Bicyclic compounds having activity at the CXCR4 receptor” (Allergan, Inc., priority 2008, dated 2012)
